Laboratory results published in patent publication US12286401B2, “Small molecules that sensitize HIV-1 infected cells to antibody dependent cellular cytotoxicity” (THE TRUSTEES OF THE UNIVERSITY OF PENNSYLVANIA, priority 2018, dated 2025).

Columns and labels:
[1] = test system: primary CD4 T cells infected with HIV-1CH58TF; assay: Cell surface staining with A32-AF647 (State 2A, cluster A exposure); format: cell-based; settings: 50 μM compound
Method: FIGS. 14A-14D show the data for the cell surface staining with A32-AF647. Cells were then incubated with A32-AF647 together with 5 μg/ml 17b (FIG. 14A, FIG. 14B, 14C) or 1:1000 diluted HIV+ plasma from infected individuals (FIG. 14D) in the presence of DMSO, 50 μM (+)-BNM-III-170 or 50 μM (S)-MCG-IV-210 at 37° C. Mean fluorescence intensity (MFI) of A32-AF647 was measured by flow cytometry. FIG. 14E is a bar graph showing data for the VBE assay, comparing the binding capacity of different Abs, the relative ratio of the luciferase activity to the luciferase activity of 2G12. Data shown are the mean±SD of at least three independent experiments. Statistical significance was evaluated using Mann-Whitney unpaired t test (FIG. 14C) or Wilcoxon paired t test (FIG. 14D) (*, P<0.05; ns, not significant.).
To evaluate whether (S)-MCG-IV-210 was able to stabilize State 2A, primary CD4+ T cells were infected with the primary CH58 transmitted/founder (CH58 TF) virus and evaluated the exposure of the cluster A region with an Alexa-Fluor 647-conjugated A32 (A32-AF647) antibody in the presence or absence of CD4mc and the CoRBS 17b Ab, as reported. See, Richard, 2016, EbioMedicine doi:10.1016/j.ebiom.2016.09.004. […] Mean fluorescence intensity (MFI) of A32-AF647 was measured by flow cytometry. […]

[2] = test system: uninfected bystander CD4+ T cells; assay: Uninfected bystander CD4+ T cell recognition and ADCC; format: cell-based; settings: 50 μM
Method: FIG. 17A is a dot plot showing the ability of HIV+plasma to recognize uninfected bystander cells in the presence of 50 μM (+)-BNM-III-170 or (S)-MCG-IV-210 was evaluated by FACS. FIG. 17B is a dot showing the use of the uninfected eFluor 450+ cells as target cells for ADCC with autologous PBMC and 5 HIV+ plasma in the presence of 50 μM (+)-BNM-III-170 or (S)-MCG-IV-210. Statistical significance was evaluated using a paired t test (*, P<0.05; ****, P<0.0001; ns, not significant).
The capacity of (S)-MCG-IV-210 to protect uninfected bystander CD4+ T cells from ADCC responses was evaluated. Briefly, primary CD4+ T cells were infected with the NL4-3.ADA.GFP WT virus. The cell proliferation dye eFluor-450 was used to stain uninfected autologous CD4+ T cells, which were then added to the infected cells (eFluor-450-cells) and co-cultured for 72 h. The ability of HIV+ plasma to recognize uninfected bystander cells in the presence of 50 μM (+)-BNM-III-170 or (S)-MCG-IV-210 was evaluated by FACS (FIG. 17A). These uninfected eFluor 450+ cells were also used as target cells for ADCC with autologous PBMC and 5 HIV+ plasma in the presence of 50 μM (+)-BNM-III-170 or (S)-MCG-IV-210 (FIG. 17B).

Question: What does the source list for `NCCNC(=O)N1CCC[C@H](C(=O)Nc2ccc(Cl)c(F)c2)C1` [(S)-MCG-IV-210]?
Answer: recognition of infected cells by A32-AF647 with addition of 17b ([1]; 5 μg/ml 17b, 37° C.): significantly enhanced; binding of infected cells by A32-AF647 in the presence of HIV+ plasma ([1]; 1:1000 diluted HIV+ plasma): significantly enhanced binding; recognition of bystander cells by HIV+ plasma ([2]; added at the time of co-culture): significantly decreased; ADCC-mediated killing of uninfected bystander CD4+ T cells ([2]; autologous PBMC and 5 HIV+ plasma): protecting uninfected bystander CD4+ T cells from ADCC-mediating killing
